Experimental data: PMC6062979 (BMC Complementary and Alternative Medicine, 2018)
In brackets after ≈: the same amount, converted by molar mass. Entries after “also recorded” stand apart in the source; their conditions may differ.

Key:
Vero cells = assay: Cytotoxic activity on Vero cells (WST-1); details: Vero cells, 72 h, WST-1
Experimental: (§1) Vero lineage derived from African Green Monkey Kidney (Vero, ATCC CCL-81) was used for selectivity index determination and for Tryp and Amas production. These cells were grown on DMEM (Life Technology, CA, USA) media, pH: 7.4; supplemented with 10% of inactivated Fetal Bovine Serum (FBSi), 1000 U/mL of penicillin, and 100 μg/mL of streptomycin; and incubated at 37 °C with 90% humidity and a 5% CO2 atmosphere. Epi of T. cruzi I (TcI) SYLVIO-X10 strain, were donated by Dr. Marcos López-Casillas, from Fundación Cardiovascular de Colombia and grown in LIT medium (Merck) supplemented with 10% FBSi, and incubated at 28 °C. The Trypomastigotes Derived from Cells (TDC) were obtained by infection of a confluent monolayer of Vero cells with 12 day-old stationary growth phase Epi and incubated under the same conditions described above for Vero cells.
(§2) Vero cells (3 × 10^5 cel/mL) were incubated at 37 °C in a 5% CO2 atmosphere and at 95% humidity for 24 h to ensure the formation of a confluent monolayer. After this time, the cells were treated with the EOs or their terpenes in four different concentrations (11.1, 33.3, 100, and 300 μg/mL). Thereafter, the lineages were incubated for 70 h at 37 °C in a 5% CO2 atmosphere and re-incubated 2 more hours with WST-1 (Roche, Mannheim, Germany), after which Optical Density (OD) measurements were analyzed by spectrophotometry. The cytotoxicity percentage was calculated using [(OD450nm Control – OD450nm treatment) / […])] × 100. The results were expressed as Cytotoxic Concentration 50 (CC50).

T. cruzi Epi [1] = assay: DNA fragmentation by TUNEL assay on epimastigotes; format: cell-based, Trypanosoma cruzi; details: for DNA fragmentation (positive TUNEL) percentage: Epi, 48 h, 2xIC50; for TUNEL assay result: treated parasites
Experimental: (§3) The death phenotype was analyzed by optical and fluorescent microscopy using phase contrast (fluorescence microscopy, Nikon Eclipse Ni). […] Determination of an oligonucleosomal-DNA ladder in treated parasites was also evaluated through DNA gel electrophoresis. Evaluation of the mitochondrial potential membrane in living parasites was performed with MitoTracker Red CMXRos (579 nm/599 nm […] wavelength). As a positive and negative apoptosis control, a 15 day-old Epi culture and an untreated fresh parasite culture were used, respectively.

T. cruzi Tryp (TDC) = assay: Anti-parasitic activity on T. cruzi trypomastigotes derived from cells (Trypan Blue differential count); details: for Tryp SI (CC50/IC50): Vero CC50 / trypomastigote IC50; for Tryp IC50 SD: trypomastigotes; for Tryp IC50 SD / IC50: 24 h; for IC50: Trypanosoma cruzi, read-out: Tryp IC50 SD, trypomastigotes, 24 h
Experimental: as §1
(§4) T. cruzi Epi (5 × 10^5 Epi/mL) and TDC (5 × 10^5 cells/mL) in the exponential growth phase were plated in a 96-well standard microplate in LIT medium (at 28 °C) and in D-MEM medium (at 37 °C in a 5% CO2 atmosphere), respectively. Both cultures were supplemented with 10% FBSi. For the trypanocidal assays, the EOs or their terpenes were added at varying concentrations (3.7 to 100 μg/mL) and incubated at the same culture conditions for 72 (Epi) or 24 h (Tryp). The growth inhibition was estimated by light microscopy through a differential count using the Trypan Blue (Gibco) dye exclusion technique. […] For Amas assays, a monolayer of Vero cells (3 × 10^5 cel/mL) was infected with TDC in a 1:3 cell:parasite ratio and incubated for 24 h until Amas development occurred. Then, these intracellular forms were exposed for 120 h to EOs or terpenes in a treatment applied in two doses (at 0 and 48 h), under the same conditions described above. Growth inhibition analysis was assessed in Giemsa-stained films using light microscopy to determine the infected and uninfected cell percentage in a total of 300 cells. Cells without treatment and those treated with BNZ were used as negative and positive controls, respectively.

T. cruzi Epi [2] = assay: Morphological analysis by optical and fluorescent microscopy (DIC, DAPI, MitoTracker); format: cell-based, Trypanosoma cruzi; details: 2xIC50, 48 h
Experimental: as §3

T. cruzi Amas = assay: Anti-parasitic activity on intracellular T. cruzi amastigotes in Vero cells (Giemsa count); format: cell-based, Trypanosoma cruzi; details: for Amas SI (CC50/IC50): Vero CC50 / amastigote IC50; for Amas IC50 ± SD / IC50: intracellular amastigotes in Vero, 120 h, two doses (0 and 48 h); for IC50: Trypanosoma cruzi, Vero, read-out: Amas IC50 ± SD
Experimental: as §1, §4

T. cruzi Epi [3] = assay: Flow cytometry Annexin V / SYTOX Green cell death analysis on epimastigotes; format: cell-based, Trypanosoma cruzi; details: 48 h at 2xIC50, flow cytometry
Experimental: For cell death characterization, an Annexin V/Dead with SYTOX® Green (Molecular Probes, Invitrogen) kit was used following the procedure specified in the manufacturer’s instructions. The phosphatidylserine externalization was determined by employing a recombinant Annexin V conjugated to the Orange Fluorescent phycobiliprotein R-PE, and to the necrotic cells using SYTOX™ Green nucleic acid stain. Briefly, 1 × 10^6 Epi per mL were treated with 2xIC50 for 48 h, washed, and suspended in 1X Annexin-Binding Buffer.

T. cruzi Epi [4] = assay: Anti-parasitic activity on T. cruzi epimastigotes (Trypan Blue differential count); details: for Epi SI (CC50/IC50): Vero CC50 / epimastigote IC50; for Epi IC50 ± SD: epimastigotes; for Epi IC50 ± SD / IC50: 72 h; for IC50: Trypanosoma cruzi, read-out: Epi IC50 ± SD, epimastigotes, 72 h
Experimental: as §1, §4

[5] = Cytotoxic activity on Vero cells (WST-1); details: African green monkey, pH 7.4
Experimental: as §1, §2

[6] = Vero cells (ATCC CCL-81), kidney

For (−) caryophyllene oxide [CarOx], the “Vero CC50 ± SD” value (Vero cells) was 128 ± 4.2 mg/L, the “DNA fragmentation (positive TUNEL) percentage” value (T. cruzi Epi [1]) was 99% and the TUNEL assay result (T. cruzi Epi [1]) was “positive”. For the same compound, the “Tryp SI (CC50/IC50)” value (T. cruzi Tryp (TDC)) was 5.9, the “cell death percentage (CDP) on Tryp” value (T. cruzi Tryp (TDC); at 50 μg/mL) was 98 ± 0.5% and the “Tryp IC50 SD” value (T. cruzi Tryp (TDC)) was 22 ± 0.3 mg/L. The “Tryp IC50 SD” value (T. cruzi Tryp (TDC); listed as caryophyllene oxide) was 21.6 mg/L, the “morphological changes of treated parasites” value (“morphological changes” for short) (T. cruzi Epi [2]) was “flagellum to be lost; also recorded: typical characteristics of apoptosis” and the “Amas SI (CC50/IC50)” value (T. cruzi Amas) was 2.7. For the same compound, the “Amas IC50 ± SD” value (T. cruzi Amas) was 47 ± 1.0 mg/L, the “Amas IC50 ± SD” value (T. cruzi Amas; listed as caryophyllene oxide) was 47.4 mg/L and the “percentage of cell death” value (T. cruzi Epi [3]) was 95.7%. The “Epi SI (CC50/IC50)” value (T. cruzi Epi [4]) was 4.3, the “cell death percentage (CDP) on Epi” value (T. cruzi Epi [4]; at 50 μg/mL) was 78 ± 2.3% and the “Epi IC50 ± SD” value (T. cruzi Epi [4]) was 30 ± 1.7 mg/L. For the same compound, the “Epi IC50 ± SD” value (T. cruzi Epi [4]; listed as caryophyllene oxide) was 29.8 mg/L.

With `C=C(C)[C@H]1CC=C(C)CC1` [Limonene, D (+) limonene] the “Vero CC50 ± SD” value (Vero cells) was 297 ± 2.4 mg/L, the “DNA fragmentation (positive TUNEL) percentage” value (T. cruzi Epi [1]) was 94% and the TUNEL assay result (T. cruzi Epi [1]) was “positive”. The “Tryp IC50 SD” value (T. cruzi Tryp (TDC)) was 9 ± 0.8 mg/L, the “morphological changes” value (T. cruzi Epi [2]) was “typical characteristics of apoptosis” and the “Amas IC50 ± SD” value (T. cruzi Amas) was 29 ± 0.7 mg/L. The “Amas IC50 ± SD” value (T. cruzi Amas; listed as limonene) was 28.7 mg/L and the “percentage of cell death” value (T. cruzi Epi [3]) was 89.2%.

In the case of `C=C(C)[C@H]1CC=C(C)C(=O)C1` [Carvone, S (+) carvone], the CC50 at 72 h [5] is reported as 240 ± 4.1 mg/L (≈ 1600 µM), the IC50 (T. cruzi Tryp (TDC)) is reported as 124 ± 8 mg/L (≈ 825 µM) and the “Tryp SI (CC50/IC50)” value (T. cruzi Tryp (TDC)) is reported as 1.9. The IC50 (T. cruzi Amas) was > 100 mg/L, the IC50 (T. cruzi Epi [4]) was 177 ± 7.9 mg/L (≈ 1180 µM) and the “Epi SI (CC50/IC50)” value (T. cruzi Epi [4]) was 1.4.

For `O=C(Cn1ccnc1[N+](=O)[O-])NCc1ccccc1` [BNZ, Benznidazole, reference compound], the CC50 at 72 h [5, 6] was 139 ± 2.3 mg/L (≈ 534 µM), the IC50 (T. cruzi Tryp (TDC)) was 1.2 ± 0.1 mg/L (≈ 4.61 µM) and the “Tryp SI (CC50/IC50)” value (T. cruzi Tryp (TDC)) was 116.3. For the same compound, the “morphological changes” value (T. cruzi Epi [2]) was “cellular edema and loss of cellular membrane integrity, but with conserved mitochondrial energetic potential”, the IC50 (T. cruzi Amas) was 6 ± 0.9 mg/L (≈ 23.1 µM) and the “Amas SI (CC50/IC50)” value (T. cruzi Amas) was 22.4. For the same compound, the “Amas IC50 ± SD” value (T. cruzi Amas) was 6.2 ± 0.9 mg/L, the IC50 (T. cruzi Epi [4]) was 17 ± 0.9 mg/L (≈ 65.3 µM) and the “Epi SI (CC50/IC50)” value (T. cruzi Epi [4]) was 8.2.

For `CC(C)=CCCC(C)=CC=O` (mixture of isomers) [Citral, citral], the CC50 at 72 h [5, 6] was 90 ± 3.9 mg/L, the IC50 (T. cruzi Tryp (TDC)) was 20.8 mg/L and the “Tryp SI (CC50/IC50)” value (T. cruzi Tryp (TDC)) was 4.3. The “Tryp IC50 SD” value (T. cruzi Tryp (TDC)) was 21 ± 1 mg/L, the “morphological changes” value (T. cruzi Epi [2]) was “typical characteristics of apoptosis” and the IC50 (T. cruzi Amas) was 49 ± 2.3 mg/L. For the same compound, the “Amas SI (CC50/IC50)” value (T. cruzi Amas) was 1.8, the “percentage of cell death” value (T. cruzi Epi [3]) was 78.4% and the IC50 (T. cruzi Epi [4]) was 37.2 mg/L. The “Epi SI (CC50/IC50)” value (T. cruzi Epi [4]) was 2.4 and the “Epi IC50 ± SD” value (T. cruzi Epi [4]) was 37 ± 0.7 mg/L.
